One assay concerns the target GSK3β (Homo sapiens, UniProt P49841). The experiment in a line: GSK3beta assay (SPA, biotinylated phosphorylated CREB peptide, ATP-P33). The class given is biochemical. The following applies: −log IC50 (M); given as ranges (>8; 7-8; <7); read-out: pIC50 (GSK3beta) (converted). As to the method:
(§1) GSK3beta assays were performed at room temperature in a 100 μl reaction volume of 25 mM Tris (ph 7.4) containing 10 mM MgCl2.6H2O 1 mM DTT, 0.1 mg/ml BSA, 5% glyceol and containing 5.7 ng/μl GSK3β, 5 μM biotinylated phosphorylated CREB peptide, 1 μM APT, 0.85 μCi/ml ATP-P^33 and a suitable amount of a test compound of formula (I). After one hour, the reaction was terminated by adding 70 μl of Stop mix (0.1 mM APT, 5 mg/ml streptavidin coated PVT SPA bead pH 11.0). The beads to which the phosphorylated CREB peptide is attached were allowed to settle overnight and the radioactivity of the beads was counted in a microtiterplate scintillation counter and compared with the results obtained in a control experiment (without the presence of a test compound) in order to determine the percentage of GSK3β inhibition. The IC50 value, i.e. the concentration (M) of the test compound at which 50% of GSK3β is inhibited, was calculated from the dose response curve obtained by performing the above-described GSKK3β assay in the presence of different amounts of the test compound.

In a further assay the target is GSK3alpha (Homo sapiens, UniProt P49840). The experiment in a line: GSK3alpha assay (same as the GSK3beta assay, GSK3alpha 0.25 ng/μl). The class given is biochemical. The following applies: −log IC50 (M); given as ranges (>8; 7-8; <7); read-out: pIC50 (GSK3alpha) (converted). As to the method:
as §1
The GSK3alpha assay was performed in the same way as described above for the GSK3beta assay except for the concentration of GSK3alpha which is 0.25 ng/μl.

Sequence of GSK3β (P49841 whole entry, species assumed): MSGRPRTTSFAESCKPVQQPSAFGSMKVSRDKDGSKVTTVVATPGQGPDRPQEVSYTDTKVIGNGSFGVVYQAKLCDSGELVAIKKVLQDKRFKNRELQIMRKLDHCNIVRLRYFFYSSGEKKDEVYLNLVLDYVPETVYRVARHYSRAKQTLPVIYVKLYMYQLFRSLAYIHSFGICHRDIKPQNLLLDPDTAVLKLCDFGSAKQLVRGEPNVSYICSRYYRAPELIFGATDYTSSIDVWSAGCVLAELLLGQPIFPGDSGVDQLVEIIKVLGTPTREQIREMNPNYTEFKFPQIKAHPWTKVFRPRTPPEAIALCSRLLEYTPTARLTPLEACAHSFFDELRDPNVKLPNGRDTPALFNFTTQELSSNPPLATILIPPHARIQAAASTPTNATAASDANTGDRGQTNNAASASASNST
Sequence of GSK3alpha (P49840 whole entry, species assumed): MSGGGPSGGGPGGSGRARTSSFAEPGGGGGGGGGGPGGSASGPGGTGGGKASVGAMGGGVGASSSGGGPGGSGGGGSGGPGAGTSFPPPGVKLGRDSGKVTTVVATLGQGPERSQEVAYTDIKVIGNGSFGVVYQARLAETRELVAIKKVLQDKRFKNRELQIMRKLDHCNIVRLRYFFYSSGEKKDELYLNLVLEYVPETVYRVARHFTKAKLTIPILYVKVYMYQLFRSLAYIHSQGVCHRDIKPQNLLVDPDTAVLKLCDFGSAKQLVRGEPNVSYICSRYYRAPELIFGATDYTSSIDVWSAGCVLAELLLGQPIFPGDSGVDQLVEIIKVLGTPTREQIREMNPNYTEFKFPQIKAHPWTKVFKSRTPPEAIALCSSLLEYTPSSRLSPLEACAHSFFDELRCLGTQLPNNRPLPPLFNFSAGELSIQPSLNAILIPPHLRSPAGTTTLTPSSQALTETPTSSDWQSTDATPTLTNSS

On to `COCc1cccc(-n2nnc3cnc(Nc4cccc(NC(C)=O)c4)nc32)c1` [Compound 81], for which the IC50 at GSK3β and on GSK3alpha was < 1e-08 M each time.

For `CCOc1ccc(Nc2ncc3nnn(-c4ccccc4)c3n2)cn1` [Compound 82], the IC50 was 1e-08 to 1e-07 M on GSK3β and < 1e-08 M at GSK3alpha.

Consider `CC(=O)Nc1ccc(Nc2ncc3nnn(-c4ccccc4)c3n2)cn1` [Compound 83], for which the IC50 at GSK3β and at GSK3alpha was 1e-08 to 1e-07 M each time.

As to `COCc1cccc(-n2nnc3cnc(Nc4cccc(NS(C)(=O)=O)c4)nc32)c1` [Compound 84], the IC50 at GSK3β and on GSK3alpha was < 1e-08 M in each case.

For the molecule `COCc1cccc(-n2nnc3cnc(Nc4cccc(S(N)(=O)=O)c4)nc32)c1` [Compound 85], the IC50 at GSK3β is 1e-08 to 1e-07 M; at GSK3alpha, < 1e-08 M.

For the molecule `COCc1cccc(-n2nnc3cnc(Nc4cccc(C(C)=O)c4)nc32)c1` [Compound 86], the IC50 at GSK3β and on GSK3alpha was < 1e-08 M in each case.

In the case of `CC(=O)Nc1ccc(Nc2ncc3nnn(-c4cccc(F)c4)c3n2)cn1` [Compound 87], the IC50 on GSK3β was 1e-08 to 1e-07 M; on GSK3alpha, < 1e-08 M.

Consider `O=S(=O)(NCCO)c1cccc(Nc2ncc3nnn(-c4cccc(F)c4)c3n2)c1` [Compound 88], for which the IC50 at GSK3β and on GSK3alpha was < 1e-08 M in each case.

For `NC(=O)CNC(=O)c1cccc(Nc2ncc3nnn(-c4cccc(F)c4)c3n2)c1` [Compound 89], the IC50 at GSK3β and on GSK3alpha was < 1e-08 M each time.

For `COCCNC(=O)c1cccc(Nc2ncc3nnn(-c4cccc(F)c4)c3n2)c1` [Compound 90], the IC50 on GSK3β and at GSK3alpha was < 1e-08 M in each case.

Take `COc1ccc(Nc2ncc3nnn(-c4cccc(F)c4)c3n2)cn1` [Compound 91]: the IC50 at GSK3β and on GSK3alpha was < 1e-08 M throughout.

For the molecule `CN(C)S(=O)(=O)c1cccc(Nc2ncc3nnn(-c4cccc(F)c4)c3n2)c1` [Compound 94], the IC50 on GSK3β and on GSK3alpha was < 1e-08 M in each case.

Take `CNS(=O)(=O)c1cccc(Nc2ncc3nnn(-c4cccc(F)c4)c3n2)c1` [Compound 95]: the IC50 at GSK3β and at GSK3alpha was < 1e-08 M in each case.

Turning to `COCc1cccc(-n2nnc3cnc(Nc4cccc(S(C)(=O)=O)c4)nc32)c1` [Compound 96], the IC50 on GSK3β and at GSK3alpha was 1e-08 to 1e-07 M each time.

For the molecule `COCc1cccc(-n2nnc3cnc(Nc4cccc(C#N)c4)nc32)c1` [Compound 97], the IC50 on GSK3β and at GSK3alpha was < 1e-08 M each time.

With `NC(=O)CNS(=O)(=O)c1cccc(Nc2ncc3nnn(-c4cccc(F)c4)c3n2)c1` [Compound 98], the IC50 on GSK3β and at GSK3alpha was < 1e-08 M in each case.

Turning to `CC(=O)NCc1cccc(-n2nnc3cnc(Nc4cccc(NS(C)(=O)=O)c4)nc32)c1` [Compound 99], the IC50 at GSK3β and at GSK3alpha was < 1e-08 M each time.

In the case of `CN(C)C(=O)c1cccc(Nc2ncc3nnn(-c4cccc(F)c4)c3n2)c1` [Compound 100], the IC50 on GSK3β and on GSK3alpha was < 1e-08 M throughout.

`O=C(NCCO)c1cccc(Nc2ncc3nnn(-c4cccc(F)c4)c3n2)c1` [Compound 101]: the IC50 on GSK3β and at GSK3alpha was < 1e-08 M each time.

Consider `CC(=O)NCCNS(=O)(=O)c1cccc(Nc2ncc3nnn(-c4cccc(F)c4)c3n2)c1` [Compound 102], for which the IC50 at GSK3β and at GSK3alpha was < 1e-08 M throughout.

Take `COCCNS(=O)(=O)c1cccc(Nc2ncc3nnn(-c4cccc(F)c4)c3n2)c1` [Compound 103]: the IC50 at GSK3β was > 1e-09 M; on GSK3alpha it was < 1e-08 M.

For the molecule `COC(=O)c1cc(Nc2ncc3nnn(-c4cccc(F)c4)c3n2)ccc1NC(C)=O` [Compound 104], the IC50 on GSK3β and on GSK3alpha was < 1e-08 M throughout.

With `CC(=O)NCc1cccc(-n2nnc3cnc(Nc4cccc(C#N)c4)nc32)c1` [Compound 107], the IC50 at GSK3β and at GSK3alpha was < 1e-08 M in each case.

With `CC(=O)NCc1cccc(Nc2ncc3nnn(-c4cccc(CNC(C)=O)c4)c3n2)c1` [Compound 108], the IC50 at GSK3β and on GSK3alpha was < 1e-08 M in each case.

On to `CC(=O)NCc1cccc(-n2nnc3cnc(Nc4cccc(NC(C)=O)c4)nc32)c1` [Compound 109], for which the IC50 on GSK3β and at GSK3alpha was < 1e-08 M in each case.

On to `CC(=O)NCc1cccc(-n2nnc3cnc(Nc4cccc(CO)c4)nc32)c1` [Compound 110], for which the IC50 on GSK3β and at GSK3alpha was < 1e-08 M in each case.

As to `CC(=O)NCc1cccc(-n2nnc3cnc(Nc4cccc(C(C)=O)c4)nc32)c1` [Compound 111], the IC50 at GSK3β and on GSK3alpha was < 1e-08 M throughout.

For `CC(=O)NCc1cccc(-n2nnc3cnc(Nc4cccc(S(N)(=O)=O)c4)nc32)c1` [Compound 112], the IC50 at GSK3β and on GSK3alpha was < 1e-08 M each time.

For the molecule `CC(=O)NCc1cccc(-n2nnc3cnc(Nc4cccc(S(C)(=O)=O)c4)nc32)c1` [Compound 113], the IC50 on GSK3β and on GSK3alpha was < 1e-08 M each time.

As to `COCc1cccc(-n2nnc3cnc(Nc4cccc(C(=O)O)c4)nc32)c1` [Compound 121], the IC50 on GSK3β and at GSK3alpha was 1e-08 to 1e-07 M throughout.

Turning to `CSc1cccc(Nc2ncc3nnn(-c4cccc(F)c4)c3n2)c1` [Compound 122], the IC50 on GSK3β and on GSK3alpha was < 1e-08 M throughout.

On to `O=C(O)c1ccc(Nc2ncc3nnn(-c4ccccc4)c3n2)cc1` [Compound 123], for which the IC50 at GSK3β and on GSK3alpha was < 1e-08 M in each case.

As for `O=C(O)c1ccc(Nc2ncc3nnn(-c4cccc(Br)c4)c3n2)cc1` [Compound 124], the IC50 on GSK3β and on GSK3alpha was < 1e-08 M in each case.

Take `COCc1cccc(-n2nnc3cnc(Nc4ccc(C(=O)O)cc4)nc32)c1` [Compound 125]: the IC50 on GSK3β and at GSK3alpha was < 1e-08 M in each case.

Take `CC(=O)NCc1cccc(-n2nnc3cnc(Nc4ccc(C(=O)O)cc4)nc32)c1` [Compound 126]: the IC50 at GSK3β and on GSK3alpha was < 1e-08 M throughout.

As to `COc1ccc(Nc2ncc3nnn(-c4cccc(CNC(C)=O)c4)c3n2)cn1` [Compound 127], the IC50 at GSK3β and at GSK3alpha was < 1e-08 M in each case.

Take `CC(=O)NCc1cccc(-n2nnc3cnc(Nc4cccc(S(=O)(=O)NCCO)c4)nc32)c1` [Compound 131]: the IC50 at GSK3β and at GSK3alpha was 1e-08 to 1e-07 M throughout.

Consider `COCc1cccc(Nc2ncc3nnn(-c4cccc(COC)c4)c3n2)c1` [Compound 132], for which the IC50 on GSK3β and at GSK3alpha was < 1e-08 M each time.

For `COCc1cccc(-n2nnc3cnc(Nc4ccc(OC)nc4)nc32)c1` [Compound 133], the IC50 on GSK3β and on GSK3alpha was < 1e-08 M throughout.

`COC(=O)c1cc(Nc2ncc3nnn(-c4cccc(F)c4)c3n2)ccc1N` [Compound 134]: the IC50 on GSK3β and on GSK3alpha was < 1e-08 M in each case.

As for `CC(=O)N(C)c1ccc(Nc2ncc3nnn(-c4cccc(F)c4)c3n2)cc1` [Compound 135], the IC50 at GSK3β and on GSK3alpha was < 1e-08 M in each case.

With `O=C(O)c1ccc(Nc2ncc3nnn(-c4cccc(F)c4)c3n2)cc1O` [Compound 136], the IC50 on GSK3β and at GSK3alpha was < 1e-08 M in each case.

In the case of `O=C(O)c1ccc(Nc2ncc3nnn(-c4cccc(F)c4)c3n2)cc1Cl` [Compound 137], the IC50 at GSK3β and at GSK3alpha was < 1e-08 M throughout.

(Values after patent US7560458B2, “Triazolopyrimidine derivatives as glycogen synthase kinase 3 inhibitors” (Janssen Pharmaceutica, N.V., priority 2003, dated 2009).)
